Experimental data from patent US8163724B2, “Glucocorticosteroids, processes for their preparation, pharmaceutical compositions containing them and their use in therapy” (AstraZeneca AB, priority 2007, dated 2012).

Molecular target: T1, recombinant human GR (Homo sapiens, UniProt P04150)
T1 construct: purchased Panvera/Invitrogen P2812 (kit P2893)
T1 sequence (P04150 1-777): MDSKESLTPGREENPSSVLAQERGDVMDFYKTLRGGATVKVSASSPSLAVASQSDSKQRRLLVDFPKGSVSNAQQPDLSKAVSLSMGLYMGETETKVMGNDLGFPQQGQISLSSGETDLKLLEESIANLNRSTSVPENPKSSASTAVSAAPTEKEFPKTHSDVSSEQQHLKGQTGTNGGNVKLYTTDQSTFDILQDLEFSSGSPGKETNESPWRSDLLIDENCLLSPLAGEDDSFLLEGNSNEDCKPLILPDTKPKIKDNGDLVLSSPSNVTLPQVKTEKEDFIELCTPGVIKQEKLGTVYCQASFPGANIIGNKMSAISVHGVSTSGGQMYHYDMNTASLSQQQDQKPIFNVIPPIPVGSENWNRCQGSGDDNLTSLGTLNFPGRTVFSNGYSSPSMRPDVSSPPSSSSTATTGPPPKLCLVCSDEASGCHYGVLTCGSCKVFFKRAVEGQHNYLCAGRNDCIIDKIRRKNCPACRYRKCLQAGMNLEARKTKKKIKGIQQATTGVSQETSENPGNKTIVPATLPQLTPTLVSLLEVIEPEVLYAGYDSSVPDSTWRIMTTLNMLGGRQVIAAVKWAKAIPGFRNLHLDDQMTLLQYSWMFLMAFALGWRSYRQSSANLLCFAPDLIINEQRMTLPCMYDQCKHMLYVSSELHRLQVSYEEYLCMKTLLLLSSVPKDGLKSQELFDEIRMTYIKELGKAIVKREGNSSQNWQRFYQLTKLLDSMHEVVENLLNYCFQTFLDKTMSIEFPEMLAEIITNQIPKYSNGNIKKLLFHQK
Assay: Human Glucocorticoid Receptor (GR) Assay (fluorescence polarization, Panvera/Invitrogen kit)
Format: binding
Conditions: fluorescence polarization; GS Red tracer; 2 hours at room temperature; 100% control 10 μM Dexamethasone; read-out: Inhibition of GR binding, IC50
Procedure, shortened: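 Fluorescence polarization competition with recombinant GR and GS Red fluorescent ligand plus stabilizing peptide and DTT in potassium phosphate/sodium molybdate/EDTA buffer with DMSO. Incubated 2 hours at room temperature in the dark; 0% control DMSO, 100% control 10 μM dexamethasone.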

`C[C@]12Cc3cnn(-c4ccc(F)cc4)c3C=C1CC[C@@H]1[C@@H]2[C@@H](O)C[C@@]2(C)[C@H]1CC[C@]2(OC(=O)c1ccco1)C(=O)OCC#N` [Example 65, Cyanomethyl(1R,3aS,3bS,10aR,10bS,11S,12aS)-7-(4-fluorophenyl)-1-[(furan-2-ylcarbonyl)oxy]-11-hydroxy-10a,12a-dimethyl-1,2,3,3a,3b,4,5,7,10,10a,10b,11,12,12a-tetradecahydrocyclopenta[5,6]naphtho[1,2-f]indazole-1-carboxylate] showed an IC50 of 2.6 nM.
`COC(=O)[C@@]1(OC(=O)c2ccco2)CC[C@H]2[C@@H]3CCC4=Cc5c(cnn5-c5ccc(F)cc5)C[C@]4(C)[C@H]3[C@@H](O)C[C@@]21C` [Example 66, Methyl (1R,3aS,3bS,10aR,10bS,11S,12aS)-7-(4-fluorophenyl)-1-[(furan-2-yl-carbonyl)oxy]-11-hydroxy-10a,12a-dimethyl-1,2,3,3a,3b,4,5,7,10,10a,10b,11,12,12a-tetradecahydrocyclopenta[5,6]naphtho[1,2-f]indazole-1-carboxylate] showed an IC50 of 3.3 nM.
Work on `CCOC(=O)O[C@]1(C(=O)SCC#N)CC[C@H]2[C@@H]3CCC4=Cc5c(cnn5-c5ccc(F)cc5)C[C@]4(C)[C@H]3[C@@H](O)C[C@@]21C` [Example 67, S-(Cyanomethyl)(1R,3aS,3bS,10aR,10bS,11S,12aS)-1-[(ethoxycarbonyl)oxy]-7-(4-fluorophenyl)-11-hydroxy-10a,12a-dimethyl-1,2,3,3a,3b,4,5,7,10,10a,10b,11,12,12a-tetradecahydrocyclopenta[5,6]naphtho[1,2-f]indazole-1-carbothioate] yielded an IC50 of 38 nM.
Work on `CC(C)OC(=O)O[C@]1(C(=O)SCC#N)CC[C@H]2[C@@H]3CCC4=Cc5c(cnn5-c5ccc(F)cc5)C[C@]4(C)[C@H]3[C@@H](O)C[C@@]21C` [Example 68, S-(Cyanomethyl)(1R,3aS,3bS,10aR,10bS,11S,12aS)-7-(4-fluorophenyl)-11-hydroxy-10a,12a-dimethyl-1-{[(1-methylethoxy)carbonyl]oxy}-1,2,3,3a,3b,4,5,7,10,10a,10b,11,12,12a-tetradecahydrocyclopenta[5,6]naphtho[1,2-f]indazole-1-carbothioate] yielded an IC50 of 12 nM.
Work on `CNC(=O)[C@@]1(OC(=O)c2ccco2)CC[C@H]2[C@@H]3CCC4=Cc5c(cnn5-c5ccc(F)cc5)C[C@]4(C)[C@H]3[C@@H](O)C[C@@]21C` [Example 69, (1R,3aS,3bS,10aR,10bS,11S,12aS)-7-(4-Fluorophenyl)-11-hydroxy-10a,12a-dimethyl-1-(methylcarbamoyl)-1,2,3,3a,3b,4,5,7,10,10a,10b,11,12,12a-tetradecahydropcyclopenta[5,6]naphtho[1,2-f]indazol-1-yl furan-2-carboxylate] yielded an IC50 of 3 nM.
For `CNC(=O)[C@@]1(O)CC[C@H]2[C@@H]3CCC4=Cc5c(cnn5-c5ccc(F)cc5)C[C@]4(C)[C@H]3[C@@H](O)C[C@@]21C` [Example 70, (1R,3aS,3bS,10aR,10bS,11S,12aS)-7-(4-Fluorophenyl)-1,11-dihydroxy-N,10a,12a-trimethyl-1,2,3,3a,3b,4,5,7,10,10a,10b,11,12,12a-tetradecahydrocyclopenta[5,6]naphtho[1,2-f]indazole-1-carboxamide], the IC50 was 3.8 nM.
In the case of `C[C@]12Cc3cnn(-c4cccc(Br)c4)c3C=C1CC[C@@H]1[C@@H]2[C@@H](O)C[C@@]2(C)[C@H]1CC[C@]2(OC(=O)c1ccco1)C(=O)SCF` [Example 71, (1R,3aS,10aR,10bS,11S,12aS)-7-(3-Bromophenyl)-1-{[(fluoromethyl)thio]carbonyl}-11-hydroxy-10a,12a-dimethyl-1,2,3,3a,3b,4,5,7,10,10a,10b,11,12,12a-tetradecaphydrocyclopenta[5,6]naphtho[1,2-f]indazol-1-yl furan-2-carboxylate], the IC50 is reported as 13 nM.
Compound `C=Cc1cccc(-n2ncc3c2C=C2CC[C@@H]4[C@H]([C@@H](O)C[C@@]5(C)[C@H]4CC[C@]5(OC(=O)c4ccco4)C(=O)SCF)[C@@]2(C)C3)c1` [Example 72, (1R,10aR,11S,12aS)-7-(3-Ethenylphenyl)-1-{[(fluoromethyl)thio]carbonyl}-11-hydroxy-10a,12a-dimethyl-1,2,3,3a,3b,4,5,7,10a,10b,11,12,12a-tetradecahydrocyclopenta[5,6]naphtho[1,2-f]indazol-1-yl furan-2-carboxylate] has an IC50 of 17 nM.
For `COCc1cc(-n2ncc3c2C=C2CC[C@@H]4[C@H]([C@@H](O)C[C@@]5(C)[C@H]4CC[C@]5(OC(=O)c4ccco4)C(=O)SCC#N)[C@@]2(C)C3)ccc1F` [Example 73, (1R,3aS,3bS,10aR,10bS,11S,12aS)-1-{[(Cyanomethyl)thio]carbonyl}-7-[4-fluoro-3-(methoxymethyl)phenyl]-11-hydroxy-10a,12a-dimethyl-1,2,3,3a,3b,4,5,7,10,10a,10b,11,12,12a-tetradecahydrocyclopenta[5,6]naphtho[1,2-f]indazol-1-yl furan-2-carboxylate], the IC50 was 6.4 nM.
`COCc1cc(-n2ncc3c2C=C2CC[C@@H]4[C@H]([C@@H](O)C[C@@]5(C)[C@H]4CC[C@]5(OC(=O)c4ccco4)C(=O)SCF)[C@@]2(C)C3)ccc1F` [Example 74, (1R,3aS,3bS,10aR,10bS,11S,12aS)-7-[4-Fluoro-3-(methoxymethyl)phenyl]-1-{[(fluoromethyl)thio]carbonyl}-11-hydroxy-10a,12a-dimethyl-1,2,3,3a,3b,4,5,7,10,10a,10b,11,12,12a-tetradecahydrocyclopenta[5,6]naphtho[1,2-f]indazol-1-yl furan-2-carboxylate] was tested, and the IC50 was 22 nM.
In the case of `C[C@]12Cc3cnn(-c4ccc(F)c(CF)c4)c3C=C1CC[C@@H]1[C@@H]2[C@@H](O)C[C@@]2(C)[C@H]1CC[C@]2(OC(=O)c1ccco1)C(=O)SCC#N` [Example 75, (1R,3aS,3bS,10aR,10bS,11S,12aS)-1-{[(Cyanomethyl)thio]carbonyl}-7-[4-fluoro-3-(fluoromethyl)phenyl]-11-hydroxy-10a,12a-dimethyl-1,2,3,3a,3 b,4,5,7,10,10a,10b,11,12,12a-tetradecahydrocyclopenta[5,6]naphtho[1,2-f]indazol-1-yl furan-2-carboxylate], the IC50 is reported as 7.2 nM.
For `C[C@]12Cc3cnn(-c4ccc(F)c(CF)c4)c3C=C1CC[C@@H]1[C@@H]2[C@@H](O)C[C@@]2(C)[C@H]1CC[C@]2(OC(=O)c1ccco1)C(=O)SCF` [Example 76, (1R,3aS,3bS,10aR,10bS,11S,12aS)-7-[4-Fluoro-3-(fluoromethyl)phenyl]-1-{[(fluoromethyl)thio]carbonyl}-11-hydroxy-10a,12a-dimethyl-1,2,3,3a,3b,4,5,7,10,10a,10b,11,12,12a-tetradecahydrocyclopenta[5,6]naphtho[1,2]-indazol-1-yl furan-2-carboxylate], the IC50 was 35 nM.
`C=CCOCc1cc(-n2ncc3c2C=C2CC[C@@H]4[C@H]([C@@H](O)C[C@@]5(C)[C@H]4CC[C@]5(OC(=O)c4ccco4)C(=O)SCC#N)[C@@]2(C)C3)ccc1F` [Example 77, (1R,3aS,3bS,10aR,10bS,11S,12aS)-1-{[(Cyanomethyl)thio]carbonyl}-7-{4-fluoro-3-[(prop-2-en-1-yloxy)methyl]phenyl}-11-hydroxy-10a,12a-dimethyl-1,2,3,3a,3b, 4,5,7,10,10a,10b,11,12,12a-tetradecahydrocyclopenta[5,6]naphtho[1,2-f]indazol-1-yl furan-2-carboxylate] showed an IC50 of 22 nM.
Compound `C=CCOCc1cc(-n2ncc3c2C=C2CC[C@@H]4[C@H]([C@@H](O)C[C@@]5(C)[C@H]4CC[C@]5(OC(=O)c4ccco4)C(=O)NC)[C@@]2(C)C3)ccc1F` [Example 78, (1R,3aS,3bS,10aR,10bS,11S,12aS)-7-{4-Fluoro-3-[(prop-2-en-1-yloxy)methyl]phenyl}-11-hydroxy-10a,12a-dimethyl-1-(methylcarbamoyl)-1,2,3,3a,3b,4,5,7,10,10a,10b,11,12,12a-tetradecahydrocyclopenta[5,6]naphtho[1,2-f]indazol-1-yl furan-2-carboxylate] has an IC50 of 12 nM.
Compound `C[C@]12Cc3cnn(-c4ccc(F)c(CO)c4)c3C=C1CC[C@@H]1[C@@H]2[C@@H](O)C[C@@]2(C)[C@H]1CC[C@]2(OC(=O)c1ccco1)C(=O)OCC#N` [Example 79, Cyanomethyl(1R,3aS,3bS,10aR,10bS,11S,12aS)-7-[4-fluoro-3-(hydroxymethyl)phenyl]-1-[(furan-2-ylcarbonyl)oxy]-11-hydroxy-10a,12a-dimethyl-1,2,3,3a,3b,4,5,7,10,10a,10b,11,12,12a-tetradecahydrocyclopenta[5,6]naphtho[1,2-f]indazole-1-carboxylate] has an IC50 of 4.2 nM.
